Source: ChEMBL document CHEMBL3596161, “Progress Toward the Development of Noscapine and Derivatives as Anticancer Agents” (J Med Chem, 2015)

Key:
MCF7 = assay: Cytotoxicity against human MCF7 cells; assay type: functional, cell-based
CCRF-CEM [1] = assay: Cytotoxicity against human CEM cells; assay type: functional, cell-based
A549 = assay: Cytotoxicity against human A549 cells; assay type: functional, cell-based
HeLa [2] = assay: Cytotoxicity against human HeLa cells; assay type: functional, cell-based
[3] = Cytotoxicity against human H460 cells after 72 hrs; assay type: functional, cell-based; conditions: NCI-H460, 72 h
HeLa [4] = assay: Antimitotic activity against human HeLa cells; assay type: functional, cell-based
Tubulin (Homo sapiens) [5] = target: T1, Tubulin (Homo sapiens) (UniProt P68371+Q9H4B7+P0DPH7+P68366+Q13509+Q71U36+P04350+Q3ZCM7+P07437+P68363+Q9BQE3+Q6PEY2+Q13885+Q9BVA1+Q9BUF5); assay: Inhibition of tubulin polymerization in human HeLa cells assessed as polymeric tubulin level at 1 uM; assay type: cell-based; set-up: scale not given: the % may be the effect or the level left
U-251 [6] = assay: Cell cycle arrest in human TMZ-resistant U251 cells assessed as accumulation at G1 phase at 30 uM after 24 hrs by flow cytomtery analysis (reference value: 47.53%); assay type: functional
U-251 [7] = assay: Cell cycle arrest in human U251 cells assessed as accumulation at G2/M phase at 30 uM after 24 hrs by flow cytomtery analysis (reference value: 22.31%); assay type: functional
U-251 [8] = assay: Cell cycle arrest in human TMZ-resistant U251 cells assessed as accumulation at G2/M phase at 30 uM after 24 hrs by flow cytomtery analysis (reference value: 19.42%); assay type: functional
[9] = Antitumor activity against human H460 cells xenografted in athymic nu/nu mouse assessed as tumor regression at 450 mg/kg/day, po administered for 24 days; assay type: functional, NCI-H460
Tubulin (Homo sapiens) [10] = target: T1, Tubulin (Homo sapiens); assay: Inhibition of tubulin polymerization in human HeLa cells assessed as shortening of microtubules at 50 uM; assay type: cell-based; set-up: scale not given: the % may be the effect or the level left
HeLa [11] = assay: Cell cycle arrest in human HeLa cells assessed as accumulation at G1 phase after 24 hrs by FACS analysis (reference value: 45.2%); assay type: functional
HeLa [12] = assay: Cell cycle arrest in human HeLa cells assessed as accumulation at G2/M phase after 24 hrs by FACS analysis (reference value: 16.5%); assay type: functional
U-251 [13] = assay: Cell cycle arrest in human U251 cells assessed as accumulation at G1 phase at 30 uM after 24 hrs by flow cytomtery analysis (reference value: 59.62%); assay type: functional
HeLa [14] = assay: Induction of apoptosis in human HeLa cells after 24 hrs; assay type: functional
HeLa [15] = assay: Growth inhibition in human HeLa cells assessed as reduction of growth at 50 uM; assay type: functional; conditions: read-out: GI
HeLa [16] = assay: Cell cycle arrest in human HeLa cells assessed as accumulation at G2/M phase by measuring 4N DNA content at 6.4 uM by flow cytometry; assay type: functional
Tubulin (Homo sapiens) [17] = target: T1, Tubulin (Homo sapiens); assay: Inhibition of tubulin polymerization in human HeLa cells assessed as microtubules spent time in attenuated state at 50 uM; assay type: cell-based; set-up: scale not given: the % may be the effect or the level left
[18] = Antiproliferative activity against human A172 cells assessed as decrease in colony formation; assay type: functional, cell-based; conditions: A 172
Tubulin (Homo sapiens) [19] = target: T1, Tubulin (Homo sapiens); assay: Inhibition of tubulin polymerization in human HeLa cells assessed as polymeric tubulin level at 10 uM; assay type: cell-based; set-up: scale not given: the % may be the effect or the level left
U-251 [20] = assay: Antiproliferative activity against human U251 cells assessed as decrease in colony formation; assay type: functional, cell-based
[21] = Antitumor activity against human H460 cells xenografted in athymic nu/nu mouse assessed as tumor regression at 550 mg/kg/day, po administered for 24 days; assay type: functional, NCI-H460
HeLa [22] = assay: Cell cycle arrest in human HeLa cells assessed as accumulation at S phase after 24 hrs by FACS analysis (reference value: 12.9%); assay type: functional
Tubulin (Homo sapiens) [23] = target: T1, Tubulin (Homo sapiens); assay: Inhibition of tubulin polymerization in human HeLa cells assessed as polymeric tubulin level at 100 uM; assay type: cell-based; set-up: scale not given: the % may be the effect or the level left
U-251 [24] = assay: Cell cycle arrest in human TMZ-resistant U251 cells assessed as accumulation at S phase at 30 uM after 24 hrs by flow cytomtery analysis (reference value: 33.05%); assay type: functional
U-251 [25] = assay: Cell cycle arrest in human U251 cells assessed as accumulation at S phase at 30 uM after 24 hrs by flow cytomtery analysis (reference value: 18.08%); assay type: functional
C6 = assay: Antitumor activity against rat C6 cells xenografted in mouse assessed as reduction of tumor volume relative to control; assay type: functional
[26] = Antitumor activity against human H460 cells xenografted in athymic nu/nu mouse assessed as tumor regression at 300 mg/kg/day, po administered for 24 days; assay type: functional, NCI-H460
[27] = Antiproliferative activity against human LN229 cells assessed as decrease in colony formation; assay type: functional, cell-based; conditions: LN-229
Tubulin (Homo sapiens) [28] = target: T1, Tubulin (Homo sapiens); assay: Inhibition of tubulin polymerization in human HeLa cells assessed as shortening of microtubules at 20 uM; assay type: cell-based; set-up: scale not given: the % may be the effect or the level left
Tubulin (Homo sapiens) [29] = target: T1, Tubulin (Homo sapiens); assay: Inhibition of MAPs-rich tubulin (unknown origin) polymerization at 50 uM; assay type: protein-complex assay
[30] = Antitumor activity against human H460 cells xenografted in athymic nu/nu mouse assessed as tumor regression at 10 mg/kg/day, po administered for 24 days; assay type: functional, NCI-H460
CCRF-CEM [31] = assay: Antitumor activity against human CEM cells xenografted in mouse assessed as reduction of tumor at 300 mg/kg/day, po administered for 26 days; assay type: functional; conditions: 624 h, read-out: GI
[32] = Cytotoxicity against human Non-small cell lung cancer cell; assay type: functional, cell-based; conditions: Cancer cell lines
[33] = Antitumor activity against human CCRF-CEM/VLB100 cells xenografted in mouse assessed as reduction of tumor at 300 mg/kg/day, po administered for 32 days; assay type: functional; conditions: 768 h, read-out: GI
Tubulin (Homo sapiens) [34] = target: T1, Tubulin (Homo sapiens); assay: Inhibition of colchicine binding to tubulin (unknown origin) at 100 uM; assay type: protein-complex assay
[35] = Induction of apoptosis in human CCRF-CEM/VLB100 cells assessed as reduction of mitochondrial potential after 72 hrs; assay type: functional; set-up: scale not given: the % may be the effect or the level left
[36] = Induction of apoptosis in human CCRF-CEM/VLB100 cells assessed as reduction of mitochondrial potential after 24 hrs; assay type: functional; set-up: scale not given: the % may be the effect or the level left
Tubulin (Homo sapiens) [37] = target: T1, Tubulin (Homo sapiens); assay: Inhibition of colchicine binding to tubulin (unknown origin) at 50 uM; assay type: protein-complex assay
CCRF-CEM [38] = assay: Cell cycle arrest in human CEM cells assessed as accumulation at G2/M phase; assay type: functional
CCRF-CEM [39] = assay: Cell cycle arrest in human CEM cells assessed as accumulation at sub-G1 phase by measuring 2N DNA content after 72 hrs; assay type: functional
[40] = Cell cycle arrest in human CCRF-CEM/VLB100 cells assessed as accumulation at sub-G1 phase by measuring 2N DNA content after 72 hrs; assay type: functional, cell-based
CCRF-CEM [41] = assay: Antitumor activity against human CEM cells xenografted in mouse assessed as reduction of tumor at 10 mg/kg/day, iv administered for 26 days; assay type: functional; conditions: 624 h, read-out: GI
[42] = Cell cycle arrest in human CCRF-CEM/VLB100 cells assessed as accumulation at G2/M phase; assay type: functional, cell-based
Tubulin = assay: Binding affinity to tubulin (unknown origin); assay type: protein-complex assay, Homo sapiens
Tubulin (Homo sapiens) [43] = target: T1, Tubulin (Homo sapiens); assay: Inhibition of colchicine binding to tubulin (unknown origin) at 25 uM; assay type: protein-complex assay

`COc1ccc2c(c1OC)C(=O)O[C@@H]2[C@@H]1NCCc2cc3c(c(OC)c21)OCO3` gave an IC50 (MCF7) of 33.6 µM, an IC50 (CCRF-CEM [1]) of 8.9 µM and an IC50 (A549) of 41.6 µM. For the same molecule, the IC50 (HeLa [2]) was 20.9 µM.

For `COc1ccc2c(c1OC)C(=O)O[C@@H]2[C@H]1c2c(cc3c(c2OC)OCO3)CCN1C` [NOSCAPINE], the IC50 [3] was 34.7 µM, the EC50 (HeLa [4]) was 18.4 µM and the Activity (Tubulin (Homo sapiens) [5]) was 58.3%. The Activity (U-251 [6]) was 21.54%, the IC50 (CCRF-CEM [1]) was 14.5 µM and the Activity (U-251 [7]) was 47.75%. It also gave an Activity (U-251 [8]) of 23.13%, an IC50 (A549) of 72.9 µM and an Activity [9] of 65%. For the same molecule, the Activity (Tubulin (Homo sapiens) [10]) was 24.3%, the Activity (HeLa [11]) was 6.4% and the Activity (HeLa [12]) was 42.9%. It also gave an Activity (U-251 [13]) of 28.92%, an Activity (HeLa [14]) of 50% and an inhibition of growth at 50 µM (HeLa [15]) of 42.4%. For the same molecule, the Activity (HeLa [16]) was 15.2%, the Activity (Tubulin (Homo sapiens) [17]) was 12.7% and the IC50 [18] was 20 µM. It also gave an Activity (Tubulin (Homo sapiens) [19]) of 59.2%, an IC50 (U-251 [20]) of 40 µM and an Activity [21] of 86%. For the same molecule, the Activity (HeLa [22]) was 11.1%, the Activity (Tubulin (Homo sapiens) [23]) was 59.2% and the Activity (U-251 [24]) was 25.33%. The Activity (U-251 [25]) was 23.33%, the “growth inhibition (GI)” value (C6) was 60% and the Activity [26] was 49%. For the same molecule, the IC50 [27] was 70 µM and the Activity (Tubulin (Homo sapiens) [28]) was 21.6%.

Molecule `COc1ccc2c(c1OCCCCS(=O)(=O)O)C(=O)O[C@@H]2[C@H]1c2c(cc3c(c2OC)OCO3)CCN1C` has an inhibition (Tubulin (Homo sapiens) [29]) of 74%.

`COc1cccc(CN2CCc3cc4c(c(OC)c3[C@@H]2[C@H]2OC(=O)c3c2ccc(OC)c3OC)OCO4)c1` gave an IC50 (MCF7) of 24.5 µM, an IC50 (CCRF-CEM [1]) of 6.7 µM and an IC50 (A549) of 26.9 µM. It also gave an IC50 (HeLa [2]) of 15.3 µM.

In the case of `CC(=O)O[C@@]12CO[C@@H]1C[C@H](O)[C@@]1(C)C(=O)[C@H](O)C3=C(C)[C@@H](OC(=O)[C@H](O)[C@@H](NC(=O)OC(C)(C)C)c4ccccc4)C[C@@](O)([C@@H](OC(=O)c4ccccc4)[C@H]21)C3(C)C` [DOCETAXEL ANHYDROUS], the Activity [30] is reported as 93%.

With `COc1ccc2c(c1OC)C(=O)O[C@@H]2[C@H]1c2c(cc3c(c2OC)OCO3)CCN1Cc1cccc(Br)c1` the IC50 (MCF7) was 27.8 µM, the IC50 (CCRF-CEM [1]) was 7.5 µM and the IC50 (A549) was 32.1 µM. The IC50 (HeLa [2]) was 17.3 µM.

`COc1ccc2c(c1OC)C(=O)O[C@@H]2[C@H]1c2c(cc3c(c2OC)OCO3)CCN1Cc1ccc([N+](=O)[O-])cc1` gave an IC50 (MCF7) of 38.2 µM, an IC50 (CCRF-CEM [1]) of 10 µM and an IC50 (A549) of 49 µM. For the same molecule, the IC50 (HeLa [2]) was 23.7 µM.

In the case of `COC(=O)CN1CCc2cc3c(c(OC)c2[C@@H]1[C@H]1OC(=O)c2c1ccc(OC)c2OC)OCO3`, the IC50 (MCF7) is reported as 36 µM, the IC50 (CCRF-CEM [1]) is reported as 9.5 µM and the IC50 (A549) is reported as 45.4 µM. It also gave an IC50 (HeLa [2]) of 22.3 µM.

`COc1ccc2c(c1OCCCS(=O)(=O)O)C(=O)O[C@@H]2[C@H]1c2c(c(Br)c3c(c2OC)OCO3)CCN1C` showed an inhibition (Tubulin (Homo sapiens) [29]) of 61%.

`COc1ccc2c(c1OC)C(=O)O[C@@H]2[C@H]1c2c(c(Br)c3c(c2OC)OCO3)CCN1C` gave an inhibition in vivo at 300 mg/kg/day (CCRF-CEM [31]) of 80%, an EC50 (HeLa [4]) of 7.7 µM and an IC50 [32] of 4 µM. For the same molecule, the inhibition in vivo at 300 mg/kg/day [33] was 81%, the inhibition (Tubulin (Homo sapiens) [34]) was 66% and the Activity [35] was 99%. It also gave an Activity [36] of 49%, an inhibition (Tubulin (Homo sapiens) [37]) of 40% and an Activity (HeLa [16]) of 51.8%. It also gave an Activity (CCRF-CEM [38]) of 45%, an Activity (CCRF-CEM [39]) of 57% and an Activity [40] of 75%. For the same molecule, the inhibition in vivo at 10 mg/kg/day (CCRF-CEM [41]) was 80%, the Activity [42] was 47% and the Kd (Tubulin) was 54 µM. The inhibition (Tubulin (Homo sapiens) [43]) was 23%.

In the case of `COc1ccc2c(c1OC)CO[C@@H]2[C@H]1c2c(c(Br)c3c(c2OC)OCO3)CCN1C`, the EC50 (HeLa [4]) is reported as 3.6 µM, the Activity (HeLa [16]) is reported as 72.7% and the Kd (Tubulin) is reported as 106 µM.
